Laboratory results published in ChEMBL document CHEMBL1137974, “1- and 2-substituted naphthalenes: a new class of potential hypotensive agents” (2004).
Activity calls are given as the source filed them. No cut-off for these calls is given here.

How the values were obtained:
Felis catus [1] = assay: Duration of hypotensive activity in cat following i.v. administration of 1 mg/kg; assay type: functional; details: route intravenous
Felis catus [2] = assay: Duration of hypotensive activity in cat following i.v. administration of 5 mg/kg; assay type: functional; details: route intravenous
Felis catus [3] = assay: Hypotensive activity in cat following i.v. administration of 5 mg/kg expressed as fall in blood pressure; assay type: functional; details: route intravenous
Felis catus [4] = assay: Hypotensive activity in cat following i.v. administration of 1 mg/kg expressed as fall in blood pressure; assay type: functional; details: route intravenous
Felis catus [5] = assay: Hypotensive activity in cat following i.v. administration of 1 mg/kg expressed as fall in blood pressure; NA denotes not active; assay type: functional, organism-based; parameters: dose 1 mg/kg; details: for Max effect: at 1 mg/kg
Felis catus [6] = assay: Hypotensive activity in cat following i.v. administration of 5 mg/kg expressed as fall in blood pressure; D denotes death; assay type: functional, organism-based; parameters: dose 5 mg/kg
Felis catus [7] = assay: Hypotensive activity in cat following i.v. administration of 5 mg/kg expressed as fall in blood pressure; NA denotes not active; assay type: functional, organism-based; parameters: dose 5 mg/kg; details: at 5 mg/kg

Structure (SMILES)	Duration (Felis catus [1]) [min]	Duration (Felis catus [2]) [min]	Decrease in blood pressure (Felis catus [3]) [mmHg]	Max effect (Felis catus [3]) [%]	Decrease in blood pressure (Felis catus [4]) [mmHg]	Max effect (Felis catus [4]) [%]	Decrease in blood pressure (Felis catus [5])	Max effect (Felis catus [5])	Decrease in blood pressure (Felis catus [6])	Max effect (Felis catus [7])
c1ccc2cc(OCN3CCCCC3)ccc2c1	2	17	44	52	20	21				
c1ccc2cc(OCN3CCNCC3)ccc2c1		2	10	7			inactive	inactive		
c1ccc2cc(OCN3CCCC3)ccc2c1	10	16	30	19	12	7				
O=C(O)C(CCOc1cccc2ccccc12)CN1CCNCC1 (stereo not given)	12	7	25	19	12	7				
c1ccc(N2CCN(COc3ccc4ccccc4c3)CC2)cc1	16	120	60	75	40	50				
CN1CCN(COc2ccc3ccccc3c2)CC1	2				18	21			Death	inactive
O=C(O)C(CCOc1cccc2ccccc12)CN1CCCC1 (stereo not given)	2	30	20	17	10	8				
c1ccc2cc(OCN3CCOCC3)ccc2c1		>35	50	41			inactive	inactive		
O=C(O)C(CCOc1cccc2ccccc12)CN1CCOCC1 (stereo not given)	2	2	16	17	18	17				
CC(C)NCC(O)COc1cccc2ccccc12 (stereo not given) [PROPRANOLOL]	40	>60	50	41	46	35				
O=C(O)C(CCOc1cccc2ccccc12)CN1CCCCC1 (stereo not given)	16	50	40	47	30	19				
CN1CCN(CC(CCOc2cccc3ccccc23)C(=O)O)CC1 (stereo not given)	2	4	34	38	18	17				
O=C(O)C(CCOc1cccc2ccccc12)CN1CCN(c2ccccc2)CC1 (stereo not given)	2	7	50	40	20	14				
